According to patent publication US20220175764A1 (priority 2019, published 2022):
“Also recorded” adds a separate entry of the source.

Experiments:
DIAMOND™ mice [1] = test: Gut permeability by serum dextran competitive ELISA after 4 kDa dextran gavage, WDSW-fed DIAMOND mice (Example 1); assay type: in vivo, mouse; conditions: for Western Diet-induced GP (conclusion): Example 1 conclusion
Method: Pioglitazone was dosed at 30 mg/kg for the entire 12 weeks. Gut permeability (GP) was assessed twice at 12 weeks and 20 weeks by measuring dextran absorption into the bloodstream using a competitive enzyme-linked immunosorbent assay (ELISA) with 20 μL of serum collected by tail nick. Mice were gavaged with 4 kDa dextran at 600 mg/kg; the more permeable the gut, the more dextran is detected in serum. Results between dose groups were compared using Student's 2-tailed t-test, and pair-wise analysis was performed on serial measurements from week-12 to week-20 to assess drug impact on progression of GP over time. Serum and liver tissues were collected at necropsy, formalin-fixed, paraffin-embedded (FFPE) slides stained with H&E and Sirius Red, and liver pathology was assessed.

DIAMOND™ mice [2] = test: Leaky gut assay / Dextran Assay - gut permeability at week 12 and week 20 (Example 2); assay type: in vivo, mouse; conditions: for GP at week-12 compared to vehicle control (Arm-5): after 4 weeks of treatment; for GP at week-20 compared to vehicle control: after 12 weeks of treatment; for GP week-20 vs week-12: mice with data at both time points, paired t-test
Method: At 8 weeks on diet (t=8), mice were randomized into experimental groups based on the most recent body weight. […] Gut integrity/permeability was measured with the leaky gut assay on week 12 (one month on test article treatment) and on week 20 immediately prior to sacrifice. At each assay time point, between 0.2 ml and 0.4 ml of 4 kDa dextran solution (2 g/10 ml PBS solution, 0.2 g/mL) was orally gavaged to mice. After 4 hours, blood was collected from the tail vein and processed to serum. Dextran concentration in samples was measured by ELISA.
Gut integrity/permeability was measured with the leaky gut assay at two time points (12-week and 20-week) by competitive Dextran ELISA, 4 weeks after initial drug dosing with test article or vehicles, and immediately prior to sacrifice. Fresh fecal pellets were collected prior to each assay and placed into RNAlater and frozen (for possible future gut microbiome analysis).
• a. The leaky gut assay was performed at week 12 (one month on treatment) and immediately prior to sacrifice. • b. The procedure for the dextran was as follow: • i. 2 g of 4 kD dextran was weighed into a static free weigh dish. • ii. The dextran was mixed into a 10 ml of PBS solution. • iii. Between 0.2 ml and 0.4 ml of dextran solution was orally gavaged into mice. Each mouse staggered by 10 minutes to maintain blood dextran consistency during blood collection. • iv. 4 hours post gavage lidocaine applied to the tails of the mice in the order that they were gavaged. • v. The mice were lightly restrained in a mouse restraint device. • vi. After 5 minutes 70% alcohol was applied to a cotton swab and used to wipe off the lidocaine. • vii. Sterile scissors were used to perform a tail nick. • viii. 140 μl of whole blood was collected into a capillary tube. • ix. The capillary tubes were spun at 3,000 RPM for 8 minutes. • x. The capillary tubes were broken at the supernatant line and the serum was blown into an Eppendorf tube and snap frozen in liquid nitrogen.

DIAMOND™ mice [3] = test: Liver weight at necropsy (Example 2); assay type: in vivo, mouse; conditions: week 20
Method: Body weight and liver weight at time of euthanasia were recorded. Any abnormal gross anatomy signs on the body or liver would have been noted. […] The liver was processed into sections.

DIAMOND™ mice [4] = test: Serum lipid profile, Alere Cholestech LDX (Example 2); assay type: in vivo, mouse; conditions: serum at necropsy
Method: (§1) Lipid (total cholesterol, LDL, HDL, triglycerides, HDL calc.) and hepatic (ALB, AST, ALT, Alk, Phos, BUN, GGT, T Bil) panels were performed as described below. Due to natural variations in mice physiology extra serum might not be available to repeat testing.
40-50 microliters of thawed serum were placed into the sample well of an AL-10-991 test cassette, then the test cassette placed into the Alere Cholestech LDX blood lipid analyzer. The Alere Cholestech is FDA approved and CLIA waived for human use at POC and is used by numerous drug companies and CROs in preclinical studies because it only requires a small amount of blood. It may be used with whole blood, serum or plasma for humans, but mouse blood clots much faster and so whole blood in our experience has a higher failure rate. We therefore used serum.
Readouts were: • 1. Total cholesterol (T-chol) • 2. Triglycerides (TRIGS) (45 lower LOD) • 3. Glucose (standard range) • 4. HDL (100 upper LOD) • 5. LDL (calculated T-Chol—HDL)

DIAMOND™ mice [5] = test: Liver histology scoring, H&E and Sirius Red (Example 2); assay type: in vivo, mouse
Method: Liver samples were fixed in 10% neutral buffered formalin for 36-48 hours depending on the size of the sample before being placed into 70% alcohol. The samples were then processed into FFPE blocks. The FFPE blocks were sectioned and three (3) slides were cut per block and submitted for H&E and Sirius Red staining, and subsequent histology analysis. The samples' identity was blinded at the time of shipment for unbiased scoring.
Slide evaluation and scoring include NAS component scoring (fibrosis, steatosis grade and percentage, inflammation, ballooning), NAS score, SAF activity score, Fibrosis NASH CRN Score, Perisinusoidal Fibrosis score, and NASH category score. A histopathology sub-report is to be prepared containing scores and representative photographic images from each group.

DIAMOND™ mice [6] = test: Serum LFT / hepatic panel, Abaxis VS2 (Example 2); assay type: in vivo, mouse; conditions: serum at necropsy
Method: as §1
Abaxis VS2 blood chemistry analyzers were used for measuring LFTs. This instrument is FDA approved for veterinary use, CLIA waived, and self-calibrating. It is the equivalent instrument to the Abaxis Piccolo instrument for human diagnostic testing. Phenobarbital test rotors (catalog #500-0049) were used which measure AST, ALT, ALP, GGT, ALB, and Total Bilirubin. The reactions are colorimetric, read automatically by the VS2 instrument, and results printed on a sticker which is attached to the necropsy specimen sheet and then entered into Excel. A minimum of 100 microliters of sample is needed for this test rotor, which may be either undiluted serum or diluted serum, in a ratio of 1:1 50 microliters of serum: 50 microliters of PBS without affecting accuracy of measurement of analytes. Significant hemolysis may render samples un-readable.

DIAMOND™ mice [7] = test: Blood glucose and ketones from tail nick (Example 2); assay type: in vivo, mouse; conditions: at necropsy
Method: Following completion of the dosing period on t=20, the mice were placed into a clean cage and fasted for six (6) hours prior to euthanasia. Animals were euthanized by exposing them to carbon dioxide as an anesthetic followed by cardiac puncture for exsanguination. Cervical dislocation was performed as a secondary means of euthanasia. A volume of 3-5 μl of whole blood were collected from a tail nick premortem and used for glucose and ketone testing. A second volume of 300-500 μl of blood collected at euthanasia were processed to serum, aliquoted into small vials and flash frozen in liquid nitrogen for further tests including liver function and lipid tests as per study protocol. Remaining serum was stored frozen for further possible testing.
• a. Immediately prior to euthanasia a tail nick was performed. Whole blood was used to measure ketones and glucose. • b. Euthanasia—The mice were placed into a clean cage and fasted for 6 hours prior to euthanasia. Blood collection took place during euthanasia via cardiac puncture. The blood was collected into micro-serum separator tubes and processed to serum by centrifugation under 4 degrees Celsius for 15 minutes at 5,000 RMP, aliquoted in 100 μl aliquots, and serum flash frozen. Serum samples were stored frozen at −80° C. until use. […]

[8] = test system: Staphylococcus, Streptococcus, Enterococcus, and Enterobacteriaceae; conditions: species of Staphylococcus; cited from earlier work
DIAMOND™ mice [9] = assay type: in vivo; conditions: 150 mg/kg oral gavage; arm terminated early
Method: 8 mice gavaged with Curcumin at a dose of 150 mg/kg.
8 mice dosed from week 8 (t=8) until week 20 (t=20) on the Western Diet Sugar Water with once (1×) daily oral gavage with curcumin 150 mg/kg.

[10] = Results Analysis 2, Week 12, after 4 weeks of treatment
[11] = Results Analysis 2, Week 20, after 12 weeks of treatment
[12] = end of study, listed as Vitamin-E
[13] = Results Analysis 1, pair-wise analysis

C[N@+]1(CC2CC2)CC[C@]23c4c5ccc(O)c4O[C@H]2C(=O)CC[C@@]3(O)[C@H]1C5.[Br-] [MNTX, (R)-N-(cyclopropylmethyl) noroxymorphone methobromide]
Western Diet-induced GP (conclusion) (DIAMOND™ mice [1]): dramatically improved
fold reduction of serum dextran compared to the VC group (DIAMOND™ mice [1]; Results Analysis 1, 12 week timepoint): 2.7 fold
serum dextran concentration (DIAMOND™ mice [1]; Results Analysis 1, 12 week timepoint, 4 weeks of treatment): 90.9 µg/mL
average serum dextran concentration, fold lower than the VC group (DIAMOND™ mice [1]; Results Analysis 1, 20 week timepoint, 12 weeks of treatment): 2 fold
fold reduction in mean serum dextran concentration compared with vehicle (DIAMOND™ mice [1]; Results Analysis 2, Week 12): 1.8 fold
serum dextran concentration relative to vehicle (significance) (DIAMOND™ mice [1]; Results Analysis 2, Week 12): significant reduction
mean serum dextran concentration (DIAMOND™ mice [1]; [10]): 91 µg/mL
fold reduction in mean serum dextran concentration compared with vehicle (DIAMOND™ mice [1]; Results Analysis 2, Week 20): 2.9 fold
serum dextran concentration (significance) (DIAMOND™ mice [1]; Results Analysis 2, Week 20): significant reduction
mean serum dextran concentration (DIAMOND™ mice [1]; [11]): 74.7 µg/mL
GP at week-12 compared to vehicle control (Arm-5) (DIAMOND™ mice [2]): significantly lower GP
GP at week-20 compared to vehicle control (DIAMOND™ mice [2]): persists at week-20; also recorded: significantly lower GP
GP week-20 vs week-12 (DIAMOND™ mice [2]): maintained
liver weight vs Vehicle Control (Arm-5) (DIAMOND™ mice [3]): significantly lower liver weight
triglycerides vs vehicle control (Arm-5) (DIAMOND™ mice [4]): no significant effect
prevalence of NASH (disease category) (DIAMOND™ mice [5]; end of study): 38%

CCc1ccc(CCOc2ccc(CC3SC(=O)NC3=O)cc2)nc1 (centres unmarked) [Pioglitazone]
mean serum dextran concentration (DIAMOND™ mice [1]; [10]): 121 µg/mL
fold reduction in mean serum dextran concentration compared with vehicle (DIAMOND™ mice [1]; Results Analysis 2, Week 20): 3.0 fold
mean serum dextran concentration (DIAMOND™ mice [1]; [11]): 71.8 µg/mL
BUN vs Vehicle control groups (Arm-5 and Arm-10) (DIAMOND™ mice [6]): significantly increased
steatosis-only (disease category) (DIAMOND™ mice [5]; end of treatment): 100%

Cc1c(C)c2c(c(C)c1O)CC[C@@](C)(CCC[C@H](C)CCC[C@H](C)CCCC(C)C)O2 [Vitamin E, a-tocopherol]
GP at week-12 compared to vehicle control (Arm-5) (DIAMOND™ mice [2]): no effect
GP at week-20 compared to vehicle control (DIAMOND™ mice [2]): no effect
GP week-20 vs week-12 (DIAMOND™ mice [2]): Trending upward
GP week-20 vs week-12 (DIAMOND™ mice [2]; listed as Vit. E): trends toward an increase in GP
liver weight vs Vehicle Control (Arm-5) (DIAMOND™ mice [3]): lower
Ketones blood level vs vehicle control (Arm-5) (DIAMOND™ mice [7]): moved ketone levels up
triglycerides vs vehicle control (Arm-5) (DIAMOND™ mice [4]): no effect
triglycerides vs vehicle control (Arm-5) (DIAMOND™ mice [4]; listed as Arm-9): no significant effect
ALT vs control vehicles (DIAMOND™ mice [6]): significantly increased
AST vs control vehicles (DIAMOND™ mice [6]): significantly increased
Albumin vs vehicle control (DIAMOND™ mice [6]): lower albumin
Albumin vs vehicle control (DIAMOND™ mice [6]; listed as Vitamin-E): decreased
Lobular inflammation vs control Arm-5 (DIAMOND™ mice [5]; end of study): increase
NAFLD Activity Score (NAS) vs control Arm-5 (DIAMOND™ mice [5]; end of study): slight increase
Steatosis, Activity and Fibrosis (SAF) score vs control Arm-5 (DIAMOND™ mice [5]; end of study): slight increase
prevalence of NASH (disease category) (DIAMOND™ mice [5]; end of study): 38%
Lobular inflammation vs control Arm-5 (DIAMOND™ mice [5]; [12]): increased
NAFLD Activity Score (NAS) vs control Arm-5 (DIAMOND™ mice [5]; [12]): increased
Steatosis, Activity and Fibrosis (SAF) score vs control Arm-5 (DIAMOND™ mice [5]; [12]): increased

CO[C@H]1/C=C/O[C@@]2(C)Oc3c(C)c(O)c4c(O)c(c5c(nc6cc(C)ccn65)c4c3C2=O)NC(=O)/C(C)=C\C=C\[C@H](C)[C@H](O)[C@@H](C)[C@@H](O)[C@@H](C)[C@H](OC(C)=O)[C@@H]1C [Rifaximin]
Western Diet-induced GP (conclusion) (DIAMOND™ mice [1]): dramatically improved
serum dextran average at 20 weeks (DIAMOND™ mice [1]; [13]): 85.9 µg/mL
serum dextran, 12-week average (DIAMOND™ mice [1]; [13]): 154.0 µg/mL
improvement of leaky gut in the 8 weeks between first and second measurement (DIAMOND™ mice [1]; Results Analysis 1, week 12 to week 20): 45%
mean serum dextran concentration (DIAMOND™ mice [1]; [10]): 151 µg/mL
serum dextran concentration (significance) (DIAMOND™ mice [1]; Results Analysis 2, Week 20): significant reduction
mean serum dextran concentration (DIAMOND™ mice [1]; [11]): 81.2 µg/mL
improvement in leaky gut during the 8 weeks between assessments (DIAMOND™ mice [1]; Results Analysis 2, pair-wise, Week 12 to Week 20): 46.2%
GP at week-12 compared to vehicle control (Arm-5) (DIAMOND™ mice [2]): no changes
GP at week-20 compared to vehicle control (DIAMOND™ mice [2]): significantly lower GP
GP week-20 vs week-12 (DIAMOND™ mice [2]): borderline significant
liver weight vs Vehicle Control (Arm-5) (DIAMOND™ mice [3]): did not reduce liver weight
Ketones blood level vs vehicle control (Arm-5) (DIAMOND™ mice [7]): slightly decreased; also recorded: decreased
triglycerides vs vehicle control (Arm-5) (DIAMOND™ mice [4]): no effect
triglycerides vs vehicle control (Arm-5) (DIAMOND™ mice [4]; listed as Arm-3): no significant effect
BUN vs Vehicle control groups (Arm-5 and Arm-10) (DIAMOND™ mice [6]): significantly increased
Liver steatosis % vs control Arm-5 (DIAMOND™ mice [5]; end of study): increased; also recorded: slight increase in steatosis
in vitro antibacterial activity [8]: active

COc1cc(/C=C/C(=O)CC(=O)/C=C/c2ccc(O)c(OC)c2)ccc1O [Curcumin]
mortality (DIAMOND™ mice [9]): excess mortality
